The values below come from patent publication US10799442B2, “Compounds useful in the treatment and/or care of the skin, hair, nails, and/or mucous membranes” (LUBRIZOL ADVANCED MATERIALS, INC., priority 2015, dated 2020).

The test system of one series is OCT4. Briefly: Modulation of stem cell markers in HEKa, Real Time PCR Arrays (OCT4 mRNA). The format is cell-based, Human. As to conditions: 48 hours. On the procedure:
(§1) The candidate compound is evaluated for the modulation of several stem cell markers, those transcription factors regulated by miRNA145 (SOX2, OCT4, KLF4 and MYC). Gene expression profiles are analyzed by Real Time PCR Arrays using a 96-well panel for use with SYBR® Green (BioRad) to detect mRNA expression levels of stem cell markers plus three housekeeping genes, and five controls, in Human Epidermal Keratinocytes from adult (HEKa) (Cascade Biologics).
(§2) HEKa cells are seeded at 6.0×10^5 cells/well in 6-well plates and incubated in culture medium, Epilife with defined Growth Supplement (EDGS) (Cascade Biologics), for 24 hours at 37° C. in a water-saturated atmosphere of 95% air and 5% CO2. After 24 hours, the medium is removed and the cells are incubated with the synthetic peptide DD14024 at several concentrations in a culture medium. Cells are incubated with culture medium only and these provide the basal conditions. After 48 hours of treatment at 37° C. in a CO2 incubator, the cells are lysed directly in the wells, and RNA is purified following the protocol described on the RNeasy Mini kit (Qiagen) according to the manufacturer's protocol. After RNA elution, quantification and analysis of purity of RNA samples are performed with a biophotometer (Eppendorf). For each sample, 2 μg of high quality RNA is retrotranscribed with iScript Advanced (BioRad) in a final volume of 20 μl. The complete reaction mix is incubated in a thermal cycler (Eppendorf) at 42° C. for 30 minutes and the reaction is stopped at 85° C. for 5 minutes (?). Complementary DNA is amplified by qPCR in a real-time PCR thermocycler (BioRad) using SYBR Green Supermix (BioRad) in the 96-well panel for use with SYBR® Green (BioRad). SYBR Green binds to double-stranded DNA molecules and emits fluorescence which is quantified; the fluorescence intensity is proportional to the amount of the product in the PCR reaction. […] Fold change relative to the expression of the sample genes and reference genes is calculated using normalized expression (ΔΔ(Ct)) method using CFX Manager Software (BioRad). […]
In general terms: Real-time PCR tracks product formation cycle by cycle.

In a further series the test system is KLF4. Briefly: Modulation of stem cell markers in HEKa, Real Time PCR Arrays (KLF4 mRNA). As to conditions: 48 hours. In kind it is cell-based, Human. As to the method: as §1, §2
For another series, the system named is human miRNA145. In words: miRNA145 inhibition on Human Keratinocyte HaCaT cell line, direct quantification by luminescence. In kind it is cell-based. The settings on record: HaCaT cells, 0.3 mg/ml, 24 hours, normalized with Snord48; mean of 3 experiments for DD14024, one experiment for the others. As to the method:
The synthetic peptide candidates are evaluated for the inhibition of human miRNA145 expression level using a direct miRNA145 quantification assay based on luminescence detection in a Human Keratinocyte HaCaT cell line.
HaCat cells (Deutsches Krebsforschungszentrum) are seeded at 3.0×10^4 cells/well in 96-clear wells plates and incubated in a culture medium [(DMEM High Glucose with L-Glutamine (Lonza), supplemented with 10% Fetal Bovine Serum (Cultek)] for 24 hours at 37° C. in a water-saturated atmosphere of 95% air and 5% CO2. Then, the cells with the candidates added at 0.3 mg/ml in the culture medium are treated for 24 hours at 37° C., 95% air and 5% CO2. Cells with culture medium only are treated to the same conditions to provide basal conditions. Each cell culture condition is assayed at least in 6 biological replicates. At the end of the incubation period, the cells are lysed and the relative miRNA145 expression level is quantified by a specific assay kit (QuantiGene™ 2.0 miRNA Assay Kit) following manufacturer's instructions (Affymetrix). Briefly, to capture miRNA145, culture lysates are incubated overnight at 46±1° C. in 96-white well plates with the miRNA145 specific probe set (Capture extenders and Label extenders). As an endogenous expression control, the housekeeping Snord48 is quantified using a specific probe set. Next day, the signal amplification tree is built via sequential hybridization at 46±1° C. of three probes: PreAmplifier, Amplifier and Alkaline Phosphatase Label Probe. Then, the signal is detected by adding a chemiluminescent substrate and using a Microplate Luminometer Reader (Clariostar-BMG LabTech).
The miRNA145 expression level result is normalized with the Snord48 expression level for each cell culture condition and the relative decrease in the miRNA145 expression level is calculated respect to basal control (cells treated with culture medium only). The values represent the mean of 3 independent experiments for DD14024, and for the other candidates, represent the result of one experiment.

Another series deals with MYC. Briefly: Modulation of stem cell markers in HEKa, Real Time PCR Arrays (MYC mRNA). In kind it is cell-based, Human. As to conditions: 48 hours. On the procedure:
as §1, §2

A further series relates to SOX2. Briefly: Modulation of stem cell markers in HEKa, Real Time PCR Arrays (SOX2 mRNA). The format is cell-based, Human. As to conditions: 48 hours. On the procedure: as §1, §2

“Ac-QEMRMQ-OH [DD14024, Ac-Gln-Glu-Met-Arg-Met-Gln-OH]”: the “Fold induction respect to basal conditions” value in the series on OCT4 (0.001 mg/ml) is reported as 1.65 ± 0.13; with OCT4 (0.005 mg/ml), 1.81 ± 0.28; in the series on OCT4 (0.01 mg/ml), 1.71 ± 0.29; in the series on KLF4 (0.001 mg/ml), 1.66 ± 0.18; in the series with KLF4 (0.005 mg/ml), 2.42 ± 0.50; in the series on KLF4 (0.01 mg/ml), 1.71 ± 0.40. In addition, the “Fold induction respect to basal conditions” value in the series on MYC (0.001 mg/ml) was determined as 0.91 ± 0.05; in the series with MYC (0.005 mg/ml), 0.65 ± 0.08; in the series with MYC (0.01 mg/ml), 0.65 ± 0.07; with SOX2 (0.001 mg/ml) it was 1.62 ± 0.18; with SOX2 (0.005 mg/ml) it was 3.00 ± 0.55; in the series with SOX2 (0.01 mg/ml), 2.81 ± 0.26. Moreover, the “Relative level of miRNA145 respect to basal control (%)” value in the series on human miRNA145 worked out at 85.06 ± 6.35%.
